Laboratory results as given in patent US10456407B2, “Combination therapy for treating cancer” (Epizyme, Inc., priority 2015, dated 2019).

Assays:
WSU-DLCL2 cells = details: for growth inhibition by the drug by itself: WSU-DLCL2, single agent
Description: (§1) After 3 days of co-treatment, cell viability was measured via ATP content using CellTiter-Glo®
(§2) Synergy quantification is performed using the Chou-Talalay method^3 for drug combination. The Combination Index (CI) equation offers a quantitative definition for additivity (CI=1), synergism (CI<1), and antagonism (CI>1). This equation used Fa values from a constant ratio of drug combination to determine CI values. […] These Fa-CI plots are generated using the Calcusyn software.
(§3) After 3 days of co-treatment (5 days for Toledo assays), cell viability was measured via ATP content using CellTiter-Glo® (Promega) and luminescence was detected using a SpectraMax M5 microplate reader (Molecular Devices).
as §2, with “Chou-Talalay method” for “Chou-Talalay method^3”, “drug combination (Ref 1).” for “drug combination.”, “used fractional effect (Fa)” for “used Fa”, “Calcusyn for Windows software (Ref2).” for “Calcusyn software.”
(§4) Dose responses were plotted using Graphpad Prism and either 50% or 60% inhibitory concentrations were interpolated from the dose response curves.

SU-DHL10 cells = details: for growth inhibition by the drug by itself: SU-DHL10, single agent
Description: as §1, §2, §3
as §2, with “Chou-Talalay method” for “Chou-Talalay method^3”, “drug combination (Ref 1).” for “drug combination.”, “used fractional effect (Fa)” for “used Fa”, “Calcusyn for Windows software (Ref2).” for “Calcusyn software.”
as §4

DOHH2 cells = details: DOHH2 (WT EZH2 GCB); drug combined with Compound 44
Description: as §1, §2, §3
as §2, with “Chou-Talalay method” for “Chou-Talalay method^3”, “drug combination (Ref 1).” for “drug combination.”, “used fractional effect (Fa)” for “used Fa”, “Calcusyn for Windows software (Ref2).” for “Calcusyn software.”
as §4

Toledo cells = details: Toledo (WT EZH2 ABC); drug combined with Compound 44
Description: as §1, §2, §3
as §2, with “Chou-Talalay method” for “Chou-Talalay method^3”, “drug combination (Ref 1).” for “drug combination.”, “used fractional effect (Fa)” for “used Fa”, “Calcusyn for Windows software (Ref2).” for “Calcusyn software.”
as §4

RP-R-02LM ccRCC PDX = type: in vivo; details: tumors at primary site
Description: Mice bearing human ccRCC patient derived xenograft (PDXs); RP-R-01, RP-R-02 and RP-R-02LM (a metastatic ccRCC model established from RP-R-02) were implanted into SCID mice. […] Tumors volumes and body weight were assessed once per week. Tumor tissues and lungs were collected for immunohistochemistry analysis. All assessments and quantification were done blindly.

[1] = due to its cardiotoxicity; cited from earlier work
[2] = tested on: EZH2 mutant lymphoma cell line; experiment: Combination assay with targeted therapies (pre-treatment model A, Calcusyn), EZH2 mutant lymphoma cell line; type: cell-based; details: pretreatment model A, combined with Compound 44
From the text: Statistically significant CI values for synergy are for example those CI value<1 with the confidence interval lines also below 1.
CI values<1 with confidence interval lines also below 1 indicate statistically significant synergism.

[3] = WSU-DLCL2 (EZH2 mutant GCB), drug combined with Compound 44
[4] = SU-DHL 10 (EZH2 mutant GCB), drug combined with Compound 44

SMILES: C[C@@H]1C[C@H]2[C@@H]3CCC4=CC(=O)C=C[C@]4(C)[C@@]3(F)[C@@H](O)C[C@]2(C)[C@@]1(O)C(=O)CO [Dexamethasone, dexamethasone]
- Summary of Combinations with Compound 44: potency enhanced (WSU-DLCL2 cells; [3]): 15x
- Summary of Combinations with Compound 44: potency enhanced (SU-DHL10 cells; [4]): potency enhanced 5x
- Summary of Combinations with Compound 44: potency enhanced (DOHH2 cells): potency enhanced 4x
- Summary of Combinations with Compound 44 (combination effect) (Toledo cells): no effect

SMILES: CCN(c1cc(C#CCN2CCOCC2)cc(C(=O)NCc2c(C)cc(C)[nH]c2=O)c1C)C1CCC(N(C)CCOC)CC1 (centres unmarked) [Compound B]
- cell proliferation (Ki67 stain) (RP-R-02LM ccRCC PDX): Decreased cell proliferation

SMILES: COc1cccc2c1C(=O)c1c(O)c3c(c(O)c1C2=O)C[C@@](O)(C(=O)CO)C[C@@H]3O[C@H]1C[C@H](N)[C@H](O)[C@H](C)O1 [Doxurubicin, doxorubicin]
- Summary of Combinations with Compound 44 (combination effect) (WSU-DLCL2 cells; [3]): synergy (Cl < 1 synergy)
- growth inhibition by the drug by itself (WSU-DLCL2 cells): concentration-dependent growth inhibition
- Summary of Combinations with Compound 44 (combination effect) (SU-DHL10 cells; [4]): additive (Cl = 1 additive)
- growth inhibition by the drug by itself (SU-DHL10 cells): concentration-dependent growth inhibition
- Summary of Combinations with Compound 44 (combination effect) (DOHH2 cells): no effect
- Summary of Combinations with Compound 44 (combination effect) (Toledo cells): no effect
- lifetime cumulative dosing limit [1]: < 550 mg/m^2

SMILES: CC[C@]1(O)C[C@H]2CN(CCc3c([nH]c4ccccc34)[C@@](C(=O)OC)(c3cc4c(cc3OC)N(C=O)[C@H]3[C@@](O)(C(=O)OC)[C@H](OC(C)=O)[C@]5(CC)C=CCN6CC[C@]43[C@@H]65)C2)C1 [Vincristine, vincristine]
- Summary of Combinations with Compound 44 (combination effect) (WSU-DLCL2 cells; [3]): additive (Cl = 1 additive)
- growth inhibition by the drug by itself (WSU-DLCL2 cells): concentration-dependent growth inhibition
- Summary of Combinations with Compound 44 (combination effect) (SU-DHL10 cells; [4]): additive (Cl = 1 additive)
- growth inhibition by the drug by itself (SU-DHL10 cells): concentration-dependent growth inhibition
- Summary of Combinations with Compound 44 (combination effect) (DOHH2 cells): no effect
- Summary of Combinations with Compound 44 (combination effect) (Toledo cells): no effect

SMILES: CC1(C)CCC(c2ccc(Cl)cc2)=C(CN2CCN(c3ccc(C(=O)NS(=O)(=O)c4ccc(N[C@H](CCN5CCOCC5)CSc5ccccc5)c(S(=O)(=O)C(F)(F)F)c4)cc3)CC2)C1 [Navitoclax]
- synergy in combination with Compound 44 [2]: Very strong synergy

SMILES: CO[C@H]1C[C@@H]2CC[C@@H](C)[C@@](O)(O2)C(=O)C(=O)N2CCCC[C@H]2C(=O)O[C@H]([C@H](C)C[C@@H]2CC[C@@H](OCCO)[C@H](OC)C2)CC(=O)[C@H](C)/C=C(\C)[C@@H](O)[C@@H](OC)C(=O)[C@H](C)C[C@H](C)/C=C/C=C/C=C/1C [everolimus]
- synergy in combination with Compound 44 [2]: Very strong synergy
